Experimental data published in patent publication US12384753B2, “17-beta-hydroxysteroid dehydrogenase type 13 inhibitors and methods of use thereof” (Enanta Pharmaceuticals, Inc., priority 2021, dated 2025).

Molecular target: Recombinant human HSD17B13 (Homo sapiens (Human), UniProt Q7Z5P4)
Assay: HSD17B13 rapid-fire mass spectrometry assay (RF/MS assay)
Type: biochemical
Details: inhibition of HSD17B13; LTB4 10 μM, NAD+ 0.5 mM, RT 3 h; IC50 ranges A-E
Summary of the method: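 Sf9-expressed human HSD17B13 (80 nM) with 10 μM LTB4 and 0.5 mM NAD+, incubated with compound (0–100 μM) for 3 h at RT in Tris pH 7.5/BSA/Tween-20. After formic acid quench, LTB4 conversion to 12-oxo-LTB4 measured by RapidFire MS/MS. IC50 from normalised residual activity, duplicates.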

Recombinant human HSD17B13, sequence (Q7Z5P4 20-300): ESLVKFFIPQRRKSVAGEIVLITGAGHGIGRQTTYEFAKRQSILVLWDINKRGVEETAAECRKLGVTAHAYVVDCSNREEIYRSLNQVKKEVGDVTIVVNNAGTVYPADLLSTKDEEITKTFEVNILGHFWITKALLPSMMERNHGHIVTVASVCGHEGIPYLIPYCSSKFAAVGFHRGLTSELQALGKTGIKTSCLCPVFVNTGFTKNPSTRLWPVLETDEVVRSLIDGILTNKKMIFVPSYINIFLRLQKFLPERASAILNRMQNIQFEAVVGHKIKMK

| IC50 [nM] | Structure (SMILES) |
| --- | --- |
| 1000 to 100000 | COc1cc(C(=O)O)ccc1NS(=O)(=O)c1csc(N2CCN(c3ccc(OC(F)(F)F)cc3)C(=O)C2)n1 [Example 266] |
| < 100 | COc1cc(C(=O)O)ccc1NS(=O)(=O)c1cc(F)cc(-c2ccc(C3CCCCC3)cc2)c1 [Example 438] |
| 100 to 500 | COc1cc(C(=O)O)ccc1NS(=O)(=O)c1ccc(-c2ccc(C3CCCCC3)cc2)c(F)c1 [Example 326, 4-((4′-cyclohexyl-2-fluoro-[1,1′-biphenyl])-4-sulfonamido)-3-methoxybenzoic acid] |
| 100 to 500 | COc1cc(C(=O)O)ccc1NS(=O)(=O)c1ccc(-c2ccc(-c3ccc(F)cc3)cc2)s1 [Example 205] |
| < 100 | COc1cc(C(=O)O)c(F)cc1NS(=O)(=O)c1csc(C#Cc2ccc(O)cc2)n1 [Example 229] |
| < 100 | COc1cc(C(=O)O)c(F)cc1NS(=O)(=O)c1csc(-c2ccc([C@H]3CC[C@H](C(C)C)CC3)cc2C(F)(F)F)n1 [Example 620] |
| 500 to 1000 | COc1cc(C(=O)O)ccc1NS(=O)(=O)c1cncc(C#Cc2cccc(OC(F)(F)F)c2)c1 [Example 434, 3-methoxy-4-((5-((3-(trifluoromethoxy)phenyl)ethynyl)pyridine)-3-sulfonamido)benzoic acid] |
| 500 to 1000 | COc1cc(C(=O)O)ccc1NS(=O)(=O)c1csc(-c2ccccc2C(F)(F)F)n1 [Example 127] |
| 1000 to 100000 | Cc1cnn(-c2ccc(S(=O)(=O)Nc3ccc(C(=O)O)cc3)cc2F)c1 [Example 54] |
| < 100 | COc1cc(C(=O)O)c(F)cc1NS(=O)(=O)c1csc(-c2ccc(C3=CCC(C)(C)CC3)c(OC(F)(F)F)c2)n1 [Example 537] |
| < 100 | COc1cc(C(=O)O)c(F)cc1NS(=O)(=O)c1csc(-c2ccc(C3=CCC(C)(C)CC3)cc2OC(F)(F)F)n1 [Example 542] |
| < 100 | COc1ccccc1C#Cc1nc(S(=O)(=O)Nc2ccc(C(=O)O)cc2OC)cs1 [Example 195] |
| 100 to 500 | COc1ccc(-c2ccc(S(=O)(=O)Nc3ccc(C(=O)O)cc3OC)s2)cc1 [Example 179] |
| 100 to 500 | COc1cc(C(=O)O)ccc1NS(=O)(=O)N1Cc2nc(C#CC3CCCC3)sc2C1 [Example 345] |
| > 100000 | Cn1nc(C(=O)O)cc1NS(=O)(=O)c1cnc(-c2ccc(F)cc2)s1 [Example 91] |
| 100 to 500 | COc1cc(C(=O)O)ccc1NS(=O)(=O)c1csc(N2CCN(c3cccc(OC(F)(F)F)c3)CC2)n1 [Example 282] |
| < 100 | COc1cc(C(=O)O)ccc1NS(=O)(=O)c1csc(C#Cc2ccc(C(C)(C)C)cc2)n1 [Example 188] |
| > 100000 | COc1cc(C(=O)O)ccc1NS(=O)(=O)N1CCN(c2nccs2)CC1 [Example 314] |
| 1000 to 100000 | COc1cc(C(=O)O)c(F)cc1NS(=O)(=O)c1csc(-c2ccc(-c3ccc(-c4ccc(C5=CCC(C(C)(C)C)CC5)cc4C(F)(F)F)cc3C(F)(F)F)cc2C(F)(F)F)n1 (centres unmarked) [Example 804] |
| 1000 to 100000 | COc1cc(C(=O)O)ccc1NS(=O)(=O)c1cccc(-c2ccc(F)cc2)c1 [Example 319] |

| IC50 [nM] | Structure (SMILES) |
| --- | --- |
| 100 to 500 | COc1cc(C(=O)O)c(F)cc1NS(=O)(=O)c1csc(-c2ccc(-c3ccc(-c4ccc(C5(C(F)(F)F)CC5)cc4)cc3C(F)(F)F)cc2C(F)(F)F)n1 [Example 796] |
| 100 to 500 | COc1cc(C(=O)O)ccc1NS(=O)(=O)c1ccc(-c2ccc(-c3ccc(C)cc3)cc2)s1 [Example 199] |
| 1000 to 100000 | COc1ccc(NS(=O)(=O)c2cnc(-c3ccc(F)cc3)s2)cc1Cl [Example 113] |
| 100 to 500 | CCC[C@H]1CC[C@H](C2CCC(c3nc(S(=O)(=O)Nc4ccc(C(=O)O)cc4OC)cs3)CC2)CC1 (some centres unmarked) [Example 504] |
| < 100 | COc1ccc(C#Cc2nc(S(=O)(=O)Nc3cc(F)c(C(=O)O)cc3OC)cs2)cc1 [Example 221] |
| < 100 | COc1cc(C(=O)O)ccc1NS(=O)(=O)c1csc(-c2ccc(C3=CCC(C(F)(F)F)CC3)cc2)n1 (centres unmarked) [Example 716] |
| 100 to 500 | COc1cc(C(=O)O)c(F)cc1NS(=O)(=O)c1nc(-c2ccc(C3CCC(C)(C)CC3)cc2)sc1C [Example 666] |
| 100 to 500 | COc1cc(C(=O)O)c(F)cc1NS(=O)(=O)c1csc(-c2ccc(C3=CCC(C)(C)CC3)c(CO)c2)n1 [Example 529] |
| < 100 | COc1cc(C(=O)O)c(F)cc1NS(=O)(=O)c1csc(-c2ccc(C3=CCC(C)(C)CC3)c(C)c2F)n1 [Example 569] |
| 1000 to 100000 | COc1cc(C(=O)O)ccc1NS(=O)(=O)c1ccc(-c2ccc(C3CCCCC3)cc2)nc1 [Example 346] |
| 100 to 500 | COc1cc(C(=O)O)c(F)cc1NS(=O)(=O)c1cnc(-c2ccc([C@H]3CC[C@@H](C(C)(C)C)CC3)cc2)s1 [Example 720] |
| 100 to 500 | COc1cc(C(=O)O)c(F)cc1NS(=O)(=O)c1ccc2sc(-c3ccc(C4CC4)cc3)nc2c1 [Example 669] |
| < 100 | CCOc1c(C2=CCC(C(C)C)CC2)ccc(-c2nc(S(=O)(=O)Nc3cc(F)c(C(=O)O)cc3OC)cs2)c1F (centres unmarked) [Example 809] |
| 1000 to 100000 | COc1cc(C(=O)O)ccc1NS(=O)(=O)N1CCC(c2ccccn2)CC1 [Example 311] |
| 100 to 500 | COc1cc(C(=O)O)ccc1NS(=O)(=O)c1cccc(-c2ccc([C@H]3CC[C@@H](C(C)(C)C)CC3)cc2)c1F [Example 479, 4-((4′-((1s,4s)-4-(tert-butyl)cyclohexyl)-2-fluoro-[1,1′-biphenyl])-3-sulfonamido)-3-methoxybenzoic acid] |
| 1000 to 100000 | O=C(O)c1cc2c(cc1F)CCN(S(=O)(=O)c1ccc(F)cc1)C2 [Example 6, 6-fluoro-2-((4-fluorophenyl)sulfonyl)-1,2,3,4-tetrahydroisoquinoline-7-carboxylic acid] |
| 100 to 500 | COc1cc(C(=O)O)ccc1NS(=O)(=O)c1csc(C#Cc2ccc(C(N)=O)c(OC(F)(F)F)c2)n1 [Example 391] |
| 500 to 1000 | COc1cc(C(=O)O)c(F)cc1NS(=O)(=O)c1csc(C2=CCC(C(C)C)CC2)n1 (centres unmarked) [Example 800] |
| 1000 to 100000 | COc1cc(C(=O)O)ccc1NS(=O)(=O)Nc1ccc(C(=O)O)cc1OC [Example 327] |
| 100 to 500 | COc1cc(C(=O)O)c(F)cc1NS(=O)(=O)c1ccn(-c2ccc(C3CCCCC3)cc2)n1 [Example 689] |

| IC50 [nM] | Structure (SMILES) |
| --- | --- |
| < 100 | COc1cc(C(=O)O)c(F)cc1NS(=O)(=O)c1csc(-c2ccc(-c3ccc(C(F)(F)C(F)(F)F)cc3)cc2C(F)(F)F)n1 [Example 784] |
| < 100 | COc1cc(C(=O)O)c(F)cc1NS(=O)(=O)c1cccc(-c2ccc(C3=CCC(C(C)(C)C)CC3)cc2)c1F (centres unmarked) [Example 498] |
| 1000 to 100000 | COc1cc(O)ccc1NS(=O)(=O)c1cnc(-c2ccc(F)cc2)s1 [Example 110] |
| 500 to 1000 | COc1cc(C(=O)O)c(F)cc1NS(=O)(=O)c1csc(-c2ccc(C3=CCC(C)(C)CC3)c(C(N)=O)c2)n1 [Example 530] |
| 100 to 500 | COc1cc(C(=O)O)c(F)cc1NS(=O)(=O)c1csc(-c2ccc(-c3ccc(C45CC6C[C@H](C4)C[C@H](C6)C5)cc3)c(C(F)(F)F)c2)n1 [Example 738] |
| 100 to 500 | O=C(O)c1ccc(NS(=O)(=O)c2cnc(-c3ccccc3)s2)c(O)c1 [Example 160] |
| < 100 | COc1cc(C(=O)O)c(F)cc1NS(=O)(=O)c1csc(-c2ccc(C3=CCC(C(C)(C)C)CC3)cc2C(F)(F)F)n1 (centres unmarked) [Example 776] |
| 1000 to 100000 | COc1cc(C(=O)O)ccc1NS(=O)(=O)c1csc(N2CCN(c3ccc(C)cc3)CC2)n1 [Example 278] |
| 500 to 1000 | COc1cc(C(=O)O)c(Cl)cc1NS(=O)(=O)c1csc(-c2ccc(C3CCC(C)(C)CC3)cc2C(F)(F)F)n1 [Example 696] |
| 100 to 500 | COc1cc(C(=O)O)ccc1NS(=O)(=O)c1csc(N2CCN(c3ccc(OC(F)(F)F)cc3)CC2)n1 [Example 271] |
| 100 to 500 | COc1cc(C(=O)O)c(F)cc1NS(=O)(=O)c1ccc(-c2ccc(C(F)(F)F)cc2)s1 [Example 230] |
| < 100 | COc1cc(C(=O)O)ccc1NS(=O)(=O)c1ccc(-c2cccc(O)c2)s1 [Example 191] |
| 1000 to 100000 | COc1cc(C(=O)O)ccc1NS(=O)(=O)c1csc(C#Cc2ccc(C#N)cc2)n1 [Example 223] |
| 1000 to 100000 | COc1cc(C(=O)O)ccc1NS(=O)(=O)c1csc(N2CC(c3ccccc3)C2)n1 [Example 267] |
| 500 to 1000 | COc1cc(C(=O)O)ccc1NS(=O)(=O)c1csc(-c2ccc(-c3ccccc3)cc2)n1 [Example 301] |
| 100 to 500 | COc1cc(C(=O)O)ccc1NS(=O)(=O)c1cnc(-c2ccccc2)o1 [Example 81] |
| < 100 | COc1cc(C(=O)O)c(F)cc1NS(=O)(=O)c1csc(-c2ccc(-c3ccc(C4(C(F)(F)F)CC4)cc3)cc2C(F)(F)F)n1 [Example 794] |
| 100 to 500 | COc1cc(C(=O)O)ccc1NS(=O)(=O)c1ccc(-c2ccc(C)cc2)s1 [Example 175] |

| Structure (SMILES) | IC50 [nM] |
| --- | --- |
| CCOP(=O)(O)c1ccc(NS(=O)(=O)c2csc(C#Cc3cccc(OC(F)(F)F)c3)n2)c(OC)c1 [Example 400, ethyl hydrogen (3-methoxy-4-((2-((3-(trifluoromethoxy)phenyl)ethynyl)thiazole)-4-sulfonamido)phenyl)phosphonate] | 1000 to 100000 |
| COc1cc(C(=O)O)ccc1NS(=O)(=O)c1csc(N2CCN(C(=O)OC(C)(C)C)CC2)n1 [Example 305, 4-((2-(4-(tert-butoxycarbonyl)piperazin-1-yl)thiazole)-4-sulfonamido)-3-methoxybenzoic acid] | 1000 to 100000 |
| CCOP(=O)(OCC)c1ccc(NS(=O)(=O)c2csc(C#Cc3cccc(OC(F)(F)F)c3)n2)c(OC)c1 [Example 392, diethyl (3-methoxy-4-((2-((3-(trifluoromethoxy)phenyl)ethynyl)thiazole)-4-sulfonamido)phenyl)phosphonate] | 1000 to 100000 |
| COc1cc(C(=O)O)ccc1NS(=O)(=O)N1C[C@H]2CN(C(=O)OC(C)(C)C)C[C@H]2C1 [Example 331, 4-(((3aR,6aS)-5-(tert-butoxycarbonyl)octahydropyrrolo[3,4-c]pyrrole)-2-sulfonamido)-3-methoxybenzoic acid] | 1000 to 100000 |
